Source: ChEMBL document CHEMBL1201862, “PubChem BioAssay data set” (2004)
The source made the active and inactive calls.

Experiments:
[1] = bead-based luminescence quenchers, dual-tagged ARNT – biochemical, AlphaScreen, cherry-pick, artefact control for ARNT-TACC3 interaction inhibitor project, dose response (AID 651705); type: functional;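 note: AlphaScreen bead proximity signal that flags compounds interfering with the detection technology; potency reflects signal decrease which marks the compound as an assay artifact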
[2] = biological target: T1, Sentrin-specific protease 8 (Homo sapiens, UniProt Q96LD8); type: functional
T1 sequence (Q96LD8 whole entry): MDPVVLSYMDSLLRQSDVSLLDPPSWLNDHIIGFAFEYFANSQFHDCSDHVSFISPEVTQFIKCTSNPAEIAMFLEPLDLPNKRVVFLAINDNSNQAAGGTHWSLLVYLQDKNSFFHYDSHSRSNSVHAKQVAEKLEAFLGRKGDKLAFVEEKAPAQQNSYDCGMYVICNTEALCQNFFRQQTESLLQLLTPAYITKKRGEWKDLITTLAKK

[3] = biological target: T1, Sentrin-specific protease 8; type: functional; remark: listed apart in the source
[4] = biological target: T2, Corticotropin-releasing factor receptor 2/Corticotropin-releasing factor-binding protein (Homo sapiens, UniProt P24387+Q13324); test: activators of CRF receptor 2 with binding protein – uHTS hits, confirmation (AID 602473); type: functional; settings: read-out: EC50_Mean
T2 sequence (Q13324 whole entry): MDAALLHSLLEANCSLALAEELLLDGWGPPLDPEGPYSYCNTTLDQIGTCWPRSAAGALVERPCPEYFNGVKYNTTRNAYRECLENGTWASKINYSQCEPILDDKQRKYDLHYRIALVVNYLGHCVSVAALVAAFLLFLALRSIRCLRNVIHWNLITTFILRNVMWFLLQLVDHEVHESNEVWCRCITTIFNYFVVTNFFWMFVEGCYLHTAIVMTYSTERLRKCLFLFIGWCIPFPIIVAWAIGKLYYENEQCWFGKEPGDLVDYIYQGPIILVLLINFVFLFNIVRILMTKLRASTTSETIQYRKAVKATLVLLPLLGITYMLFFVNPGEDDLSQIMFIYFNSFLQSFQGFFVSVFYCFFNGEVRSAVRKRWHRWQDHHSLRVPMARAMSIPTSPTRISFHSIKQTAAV
T2 sequence (P24387 whole entry): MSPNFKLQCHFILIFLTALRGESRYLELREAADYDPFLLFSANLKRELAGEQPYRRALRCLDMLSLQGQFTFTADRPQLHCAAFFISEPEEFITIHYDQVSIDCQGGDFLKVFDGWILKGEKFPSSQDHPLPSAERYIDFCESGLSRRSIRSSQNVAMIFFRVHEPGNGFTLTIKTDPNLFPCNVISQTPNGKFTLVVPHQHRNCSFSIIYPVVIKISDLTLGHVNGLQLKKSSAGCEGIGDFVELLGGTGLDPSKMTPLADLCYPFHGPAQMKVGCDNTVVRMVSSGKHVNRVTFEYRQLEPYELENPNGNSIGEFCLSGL

[5] = biological target: T2, Corticotropin-releasing factor receptor 2/Corticotropin-releasing factor-binding protein; test: Dose Response confirmation of uHTS hits for small molecule antagonists of the CRF-binding protein and CRF-R2 receptor complex.; type: functional; settings: read-out: IC50_Mean
[6] = blockers of CRF-binding protein–CRF-R2 complex – cell-based, uHTS hits, 384-well, dose response (AID 651639); type: functional, Homo sapiens; settings: read-out: IC50_Mean
[7] = biological target: Adenosylmethionine-8-amino-7-oxononanoate aminotransferase (Mycobacterium tuberculosis, UniProt P9WQ81); test: Mycobacterium tuberculosis BioA enzyme inhibitor Measured in Biochemical System Using Plate Reader - 2163-02_Inhibitor_Dose_CherryPick_Activity.; type: functional, Mycobacterium tuberculosis UT205
Sequence of Adenosylmethionine-8-amino-7-oxononanoate aminotransferase (P9WQ81 whole entry): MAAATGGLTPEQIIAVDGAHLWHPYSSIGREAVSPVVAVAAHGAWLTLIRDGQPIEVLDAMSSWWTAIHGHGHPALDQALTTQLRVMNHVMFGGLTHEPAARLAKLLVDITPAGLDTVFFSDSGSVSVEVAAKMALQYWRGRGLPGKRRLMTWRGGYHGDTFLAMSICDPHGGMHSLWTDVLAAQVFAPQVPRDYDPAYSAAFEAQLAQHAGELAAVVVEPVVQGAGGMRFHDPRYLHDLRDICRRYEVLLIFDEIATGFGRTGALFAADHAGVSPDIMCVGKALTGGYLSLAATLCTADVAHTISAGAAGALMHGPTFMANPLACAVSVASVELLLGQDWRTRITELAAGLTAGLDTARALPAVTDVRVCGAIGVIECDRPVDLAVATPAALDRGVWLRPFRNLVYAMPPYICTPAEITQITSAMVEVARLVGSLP

[8] = biological target: Nuclear receptor subfamily 0 group B member 1 (Homo sapiens, UniProt P51843); test: Luminescence-based cell-based high throughput dose response assay for inhibitors of the orphan nuclear receptor subfamily 0, group B, member 1 (DAX1; NR0B1). [Related pubchem assays (depositor defined):AID504766, AID504790]; type: functional
Sequence of Nuclear receptor subfamily 0 group B member 1 (P51843 whole entry): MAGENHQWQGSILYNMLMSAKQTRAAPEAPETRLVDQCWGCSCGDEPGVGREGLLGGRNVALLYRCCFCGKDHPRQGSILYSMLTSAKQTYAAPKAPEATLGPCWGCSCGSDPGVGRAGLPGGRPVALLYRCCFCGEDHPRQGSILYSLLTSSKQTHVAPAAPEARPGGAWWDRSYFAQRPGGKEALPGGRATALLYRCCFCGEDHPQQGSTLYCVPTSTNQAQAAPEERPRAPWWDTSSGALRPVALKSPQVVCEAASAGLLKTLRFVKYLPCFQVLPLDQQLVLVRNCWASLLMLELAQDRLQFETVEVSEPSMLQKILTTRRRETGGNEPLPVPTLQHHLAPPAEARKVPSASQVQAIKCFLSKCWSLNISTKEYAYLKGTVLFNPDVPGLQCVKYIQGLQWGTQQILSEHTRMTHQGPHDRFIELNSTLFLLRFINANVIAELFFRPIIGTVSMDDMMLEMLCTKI

HEK293 = test: cells; type: functional, cell-based; settings: Homo sapiens
[9] = viability loss in HepG2 hepatoma cells – cell-based, ATP luminescence, cherry-pick, activator set 2, cytotoxicity control, dose response (AID 1053143); type: functional
[10] = cytotoxicity toward MDA-MB-231 breast cancer cells – cell-based, CellTiter-Glo luminescence, cherry-pick, cytotoxicity control for RAD54 inhibitor project, dose response (AID 651692); type: functional
[11] = biological target: T3, DNA repair and recombination protein RAD54-like (Homo sapiens, UniProt Q92698); test: RAD54 Holliday junction migration blockers – biochemical, fluorescence, cherry-picked samples, dose series, confirmation (AID 651657); type: functional
T3 sequence (Q92698 whole entry): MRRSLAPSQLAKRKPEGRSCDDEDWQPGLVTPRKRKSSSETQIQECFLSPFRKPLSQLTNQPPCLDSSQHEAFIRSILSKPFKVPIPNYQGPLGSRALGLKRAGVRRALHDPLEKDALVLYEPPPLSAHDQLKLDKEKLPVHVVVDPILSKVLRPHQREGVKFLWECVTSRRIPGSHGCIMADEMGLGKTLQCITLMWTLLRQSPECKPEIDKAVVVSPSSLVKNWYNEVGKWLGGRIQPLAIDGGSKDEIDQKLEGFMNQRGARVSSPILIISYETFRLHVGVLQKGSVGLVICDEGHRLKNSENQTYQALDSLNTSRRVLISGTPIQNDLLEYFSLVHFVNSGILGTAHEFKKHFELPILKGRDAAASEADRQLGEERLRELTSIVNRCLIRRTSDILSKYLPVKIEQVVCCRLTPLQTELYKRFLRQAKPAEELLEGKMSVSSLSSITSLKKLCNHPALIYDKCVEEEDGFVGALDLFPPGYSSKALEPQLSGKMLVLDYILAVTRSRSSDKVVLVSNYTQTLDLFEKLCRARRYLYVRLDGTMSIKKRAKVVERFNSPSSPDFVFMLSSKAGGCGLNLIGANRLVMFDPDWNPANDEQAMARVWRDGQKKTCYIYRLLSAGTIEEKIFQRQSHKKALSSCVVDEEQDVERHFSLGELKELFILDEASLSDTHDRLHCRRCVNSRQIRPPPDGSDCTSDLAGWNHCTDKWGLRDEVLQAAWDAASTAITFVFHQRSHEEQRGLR

[12] = biological target: T4, ATP-dependent translocase ABCB1 (Homo sapiens, UniProt P08183); test: inhibition of BCRP-mediated JC-1 efflux – Ig-MXP3 cells, flow cytometry, set 2, dose response (AID 504566); type: functional; settings: read-out: EC50_MICROM_;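 note: flow cytometry median green fluorescence of retained JC-1 dye; potency of efflux pump inhibition measured as rising substrate retention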
T4 sequence (P08183 whole entry): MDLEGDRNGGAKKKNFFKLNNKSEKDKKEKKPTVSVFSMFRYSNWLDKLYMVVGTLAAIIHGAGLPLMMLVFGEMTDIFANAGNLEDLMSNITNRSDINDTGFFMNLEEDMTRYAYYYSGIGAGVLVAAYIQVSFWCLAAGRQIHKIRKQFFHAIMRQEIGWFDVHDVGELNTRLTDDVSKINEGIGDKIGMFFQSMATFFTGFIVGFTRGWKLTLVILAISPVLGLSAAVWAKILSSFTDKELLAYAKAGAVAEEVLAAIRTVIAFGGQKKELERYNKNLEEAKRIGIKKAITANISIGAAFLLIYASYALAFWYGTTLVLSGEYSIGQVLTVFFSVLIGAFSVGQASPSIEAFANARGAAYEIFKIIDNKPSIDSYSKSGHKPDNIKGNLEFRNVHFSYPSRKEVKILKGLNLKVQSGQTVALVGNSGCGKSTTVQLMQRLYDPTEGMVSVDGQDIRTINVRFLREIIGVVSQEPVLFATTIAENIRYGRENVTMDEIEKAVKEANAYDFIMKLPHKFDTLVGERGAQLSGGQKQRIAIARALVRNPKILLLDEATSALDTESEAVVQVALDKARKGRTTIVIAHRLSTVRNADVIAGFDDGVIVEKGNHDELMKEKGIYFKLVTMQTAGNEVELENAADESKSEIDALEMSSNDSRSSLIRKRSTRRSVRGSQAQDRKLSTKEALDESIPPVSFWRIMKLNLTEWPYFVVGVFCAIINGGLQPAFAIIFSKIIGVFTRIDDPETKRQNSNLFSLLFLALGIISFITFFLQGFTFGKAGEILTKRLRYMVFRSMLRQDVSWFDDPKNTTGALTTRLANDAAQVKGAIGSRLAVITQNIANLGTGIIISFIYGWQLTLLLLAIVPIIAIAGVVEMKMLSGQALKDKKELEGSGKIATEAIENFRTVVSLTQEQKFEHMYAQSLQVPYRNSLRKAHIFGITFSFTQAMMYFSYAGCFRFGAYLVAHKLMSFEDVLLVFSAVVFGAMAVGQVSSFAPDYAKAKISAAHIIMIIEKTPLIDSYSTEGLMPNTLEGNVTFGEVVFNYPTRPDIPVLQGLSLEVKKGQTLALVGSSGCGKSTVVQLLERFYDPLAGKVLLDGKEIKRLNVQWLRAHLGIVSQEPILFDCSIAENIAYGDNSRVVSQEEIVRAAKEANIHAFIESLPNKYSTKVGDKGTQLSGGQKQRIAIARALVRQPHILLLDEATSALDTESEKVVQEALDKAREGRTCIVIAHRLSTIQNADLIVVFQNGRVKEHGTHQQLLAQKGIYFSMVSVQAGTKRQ

[13] = biological target: T4, ATP-dependent translocase ABCB1; test: P-gp JC-1 efflux blockade concentration-response – Jurkat-DNR cells, flow cytometry, set 2, dose response (AID 504569); type: functional; settings: read-out: EC50_MICROM_;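 note: potency of pump inhibitors that raise cellular JC-1 green fluorescence up to the nicardipine level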

Structure (SMILES): CN1CC[C@@]2(C)c3cc(O)ccc3N(C)[C@@H]12
- AC50 [1]: 97.2 µM (active)
- IC50 [2]: 8.51 µM (active)
- IC50 [3]: 3.53 µM (active)

Structure (SMILES): O=C(Cc1ccccc1)NCC(=O)OC(c1ccccc1)c1ccccc1
- EC50 [4]: > 53 µM (inactive)
- IC50 [5]: 18.9 µM (active)
- IC50 [6]: > 20 µM (inactive)

Structure (SMILES): CC(=O)c1ccc(C(=O)NC2CCCN(Cc3ccccc3F)C2)s1 (centres undefined)
- AC50 [7]: 4.26 µM (active)

Structure (SMILES): CCN1C(=O)CCN(C2CCCC2)c2nc(Nc3ccc(C(=O)NC4CCN(C)CC4)cc3OC)ncc21
- IC50 [8]: > 67.5 µM (inactive)
- IC50 (HEK293): > 67.5 µM (inactive)
- AC50 [9]: 13 µM (active)
- AC50 [10]: 36.4 µM (active)
- AC50 [11]: 39.3 µM (active)

Structure (SMILES): O=C(c1ccccc1)N1CCN(c2cc(Cl)nc3cc(-c4cccc(Cl)c4)nn23)CC1
- EC50 [12]: 1.8 µM (active)
- EC50 [13]: 3.98 µM (active)
